test system: Kuramochi cells; assay: BrdU Cell Proliferation Assay; type: cell-based; conditions: read-out: BrdU - KURAMOCHI.1: IC50
Outline: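 Signal is 450 nm absorbance from a peroxidase anti-BrdU ELISA after a 1-hour BrdU label, background-subtracted and normalized to DMSO-treated wells. Kuramochi cells (2,000 per well) had been exposed to compound for 4 days. Dosing used a 10-point dose response in 3-fold steps.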

`CNC(=O)[C@@H](NC(=O)[C@H]1CN(C(=O)c2cnn(Cc3ccccc3)c2)CC12CN(C(=O)C(C)(C)F)C2)[C@@H](C)OCc1ccccc1` [I-90B] and `CNC(=O)[C@@H](NC(=O)[C@@H]1CN(C(=O)c2cnn(Cc3ccccc3)c2)CC12CN(C(=O)C1(C(F)(F)F)CC1)C2)[C@@H](C)OCc1ccccc1` [I-108A] cannot be ordered by IC50: > 10 µM for the first, > 10 µM for the second.

`CC1(C)C[C@@H]1C(=O)N1CC2(CN(C(=O)c3cnn(Cc4ccccc4)c3)C[C@H]2C(=O)N2CCCC(Cc3ccccc3)C2)C1` (stereo partly drawn) [I-91A] and `CC1(C)C[C@@H]1C(=O)N1CC2(CN(C(=O)c3cnn(Cc4ccccc4)c3)C[C@@H]2C(=O)N2CCCC(Cc3ccccc3)C2)C1` (stereo partly drawn) [I-91B] cannot be ordered by IC50: > 10 µM for the first, > 10 µM for the second.

`CNC(=O)[C@@H](NC(=O)[C@@H]1CN(C(=O)c2cnn(Cc3ccccc3)c2)CC12CN(C(=O)CC1(CO)CC1)C2)[C@@H](C)OCc1ccccc1` [I-92A] and `CNC(=O)[C@@H](NC(=O)[C@H]1CN(C(=O)c2cnn(Cc3ccccc3)c2)CC12CN(C(=O)CC1(CO)CC1)C2)[C@@H](C)OCc1ccccc1` [I-92B] cannot be ordered by IC50: > 10 µM for the first, > 10 µM for the second.

`CC1(C)C[C@@H]1C(=O)N1CC2(CN(C(=O)c3cnn(Cc4ccccc4)c3)CC2C(=O)Nc2ncc(-c3ccccc3)o2)C1` (stereo partly drawn) [I-93] and `CC1(C)C[C@@H]1C(=O)N1CC2(CN(C(=O)c3cnn(Cc4ccccc4)c3)C[C@H]2C(=O)NCCOCc2ccccc2)C1` [I-96A] cannot be ordered by IC50: > 10 µM for the first, > 10 µM for the second.

`CCCCC1CC1C(=O)N1CC2(CN(C(=O)c3cnn(Cc4ccccc4)c3)C[C@H]2C(=O)N[C@H](C(=O)NC)[C@@H](C)OCc2ccccc2)C1` (stereo partly drawn) [I-94A] and `CCCCC1CC1C(=O)N1CC2(CN(C(=O)c3cnn(Cc4ccccc4)c3)C[C@@H]2C(=O)N[C@H](C(=O)NC)[C@@H](C)OCc2ccccc2)C1` (stereo partly drawn) [I-94B] cannot be ordered by IC50: > 10 µM for the first, > 10 µM for the second.

`CNC(=O)[C@@H](NC(=O)[C@@H]1CN(C(=O)c2cnn(CC3CCOCC3)c2)CC12CN(C(=O)[C@H]1CC1(C)C)C2)[C@@H](C)OCc1ccccc1` [I-95A] and `CNC(=O)[C@@H](NC(=O)[C@H]1CN(C(=O)c2cnn(CC3CCOCC3)c2)CC12CN(C(=O)[C@H]1CC1(C)C)C2)[C@@H](C)OCc1ccccc1` [I-95B] cannot be ordered by IC50: > 10 µM for the first, > 10 µM for the second.

`CC1(C)C[C@@H]1C(=O)N1CC2(CN(C(=O)c3cnn(Cc4ccccc4)c3)C[C@@H]2C(=O)NCCOCc2ccccc2)C1` [I-96B] and `COCCNC(=O)[C@@H]1CN(C(=O)c2cnn(Cc3ccccc3)c2)CC12CN(C(=O)[C@H]1CC1(C)C)C2` [I-122A] cannot be ordered by IC50: > 10 µM for the first, > 10 µM for the second.

First: C[C@@H](OCc1ccccc1)[C@H](NC(=O)C1CN(C(=O)c2cnn(Cc3ccccc3)c2)CC12CN(C(=O)[C@H]1CC1(C)C)C2)C(=O)N1CCCC(CO)C1 (stereo partly drawn) [I-98]
Second: C[C@@H](OCc1ccccc1)[C@H](NC(=O)C1CN(C(=O)c2cnn(Cc3ccccc3)c2)CC12CN(C(=O)[C@H]1CC1(C)C)C2)C(=O)N1CC2(CCC2)C1 (stereo partly drawn) [I-106]
The IC50 of the first is higher: > 10 µM for the first, 0.5 to 5 µM for the second.

`CNC(=O)[C@H](COCc1ccccc1)NC(=O)[C@@H]1CN(C(=O)c2cnn(Cc3ccccc3)c2)CC12CN(C(=O)C(C)(C)C)C2` [I-100A] and `CNC(=O)[C@H](COCc1ccccc1)NC(=O)[C@H]1CN(C(=O)c2cnn(Cc3ccccc3)c2)CC12CN(C(=O)C(C)(C)C)C2` [I-100B] cannot be ordered by IC50: > 10 µM for the first, > 10 µM for the second.

`CNC(=O)[C@H](CCCc1ccccc1)NC(=O)[C@@H]1CN(C(=O)c2cnn(Cc3ccccc3)c2)CC12CN(C(=O)[C@H]1CC1(C)C)C2` [I-101A] and `CNC(=O)[C@H](CCCc1ccccc1)NC(=O)[C@H]1CN(C(=O)c2cnn(Cc3ccccc3)c2)CC12CN(C(=O)[C@H]1CC1(C)C)C2` [I-101B] cannot be ordered by IC50: > 10 µM for the first, > 10 µM for the second.

`CNC(=O)[C@@H](NC(=O)[C@@H]1CN(C(=O)c2cnn(Cc3ccccc3)c2)CC12CN(C(=O)C1(CCOC)CC1)C2)[C@@H](C)OCc1ccccc1` [I-102A] and `CNC(=O)[C@@H](NC(=O)[C@H]1CN(C(=O)c2cnn(Cc3ccccc3)c2)CC12CN(C(=O)C1(CCOC)CC1)C2)[C@@H](C)OCc1ccccc1` [I-102B] cannot be ordered by IC50: > 10 µM for the first, > 10 µM for the second.

`CNC(=O)[C@@H](NC(=O)[C@@H]1CN(C(=O)c2cncs2)CC12CN(C(=O)CC1CC1)C2)[C@@H](C)OCC1CCCCC1` [I-103A] and `CNC(=O)[C@@H](NC(=O)[C@H]1CN(C(=O)c2cncs2)CC12CN(C(=O)CC1CC1)C2)[C@@H](C)OCC1CCCCC1` [I-103B] cannot be ordered by IC50: > 10 µM for the first, > 10 µM for the second.

`CNC(=O)[C@@H](NC(=O)[C@H]1CN(C(=O)c2cnn(Cc3ccccc3)c2)CC12CN(C(=O)C1(C(F)(F)F)CC1)C2)[C@@H](C)OCc1ccccc1` [I-108B] and `CNC(=O)[C@H](COCc1ccccc1)NC(=O)[C@@H]1CN(C(=O)c2cnn(Cc3ccccc3)c2)CC12CN(C(=O)C1(C(F)(F)F)CC1)C2` [I-113A, (S)-6-(1-benzyl-1H-pyrazole-4-carbonyl)-N—((S)-3-(benzyloxy)-1-(methylamino)-1-oxopropan-2-yl)-2-(1-(trifluoromethyl)cyclopropane-1-carbonyl)-2,6-diazaspiro[3.4]octane-8-carboxamide] cannot be ordered by IC50: > 10 µM for the first, > 10 µM for the second.

Compared with `CNC(=O)[C@@H](NC(=O)[C@@H]1CN(C(=O)c2cnn(Cc3ccccc3)c2)CC12CN(C(=O)[C@H]1CC1(C)C)C2)[C@@H](C)OCC1CCCC1` [I-110A], `CNC(=O)[C@@H](NC(=O)[C@H]1CN(C(=O)c2cnn(Cc3ccccc3)c2)CC12CN(C(=O)[C@H]1CC1(C)C)C2)[C@@H](C)OCC1CCCCC1` [I-123B] is higher in IC50: 0.5 to 5 µM for the first, > 10 µM for the second.

`CNC(=O)[C@@H](NC(=O)[C@@H]1CN(C(=O)c2n[nH]c3ccccc23)CC12CN(C(=O)[C@H]1CC1(C)C)C2)[C@@H](C)OCc1ccccc1` [I-112A] and `CNC(=O)[C@@H](NC(=O)[C@H]1CN(C(=O)c2n[nH]c3ccccc23)CC12CN(C(=O)[C@H]1CC1(C)C)C2)[C@@H](C)OCc1ccccc1` [I-112B] cannot be ordered by IC50: > 10 µM for the first, > 10 µM for the second.

`CNC(=O)[C@@H](NC(=O)[C@@H]1CN(C(=O)c2cnn(Cc3ccccc3)c2)CC12CN(C(=O)C1(C3CC3)CC1)C2)[C@@H](C)OCc1ccccc1` [I-114A] and `CNC(=O)[C@@H](NC(=O)[C@H]1CN(C(=O)c2cnn(Cc3ccccc3)c2)CC12CN(C(=O)C1(C3CC3)CC1)C2)[C@@H](C)OCc1ccccc1` [I-114B] cannot be ordered by IC50: > 10 µM for the first, > 10 µM for the second.

`CNC(=O)[C@@H](NC(=O)[C@@H]1CN(C(=O)c2cnn(Cc3ccccc3)c2)CC12CN(C(=O)C1(CC3CC3)CC1)C2)[C@@H](C)OCc1ccccc1` [I-116A] and `CNC(=O)[C@@H](NC(=O)[C@H]1CN(C(=O)c2cnn(Cc3ccccc3)c2)CC12CN(C(=O)C1(CC3CC3)CC1)C2)[C@@H](C)OCc1ccccc1` [I-116B] cannot be ordered by IC50: > 10 µM for the first, > 10 µM for the second.

`CNC(=O)[C@@H](NC(=O)[C@@H]1CN(C(=O)c2cnn(Cc3ccccc3)c2)CC12CN(C(=O)C1(CCF)CC1)C2)[C@@H](C)OCc1ccccc1` [I-117A] and `CNC(=O)[C@@H](NC(=O)[C@H]1CN(C(=O)c2cnn(Cc3ccccc3)c2)CC12CN(C(=O)C1(CCF)CC1)C2)[C@@H](C)OCc1ccccc1` [I-117B] cannot be ordered by IC50: > 10 µM for the first, > 10 µM for the second.

`CNC(=O)[C@@H](NC(=O)[C@@H]1CN(C(=O)c2cnn(Cc3ccccc3)c2)CC12CN(C(=O)[C@H]1CC1(C)C)C2)[C@@H](C)OCC1CCOCC1` [I-119A] and `CNC(=O)[C@@H](NC(=O)[C@H]1CN(C(=O)c2cnn(Cc3ccccc3)c2)CC12CN(C(=O)[C@H]1CC1(C)C)C2)[C@@H](C)OCC1CCOCC1` [I-119B] cannot be ordered by IC50: > 10 µM for the first, > 10 µM for the second.

`CC1(C)C[C@@H]1C(=O)N1CC2(CN(C(=O)c3cnn(Cc4ccccc4)c3)C[C@H]2C(=O)N[C@H]2CCc3cc(Cl)ccc32)C1` [I-120A] and `CC1(C)C[C@@H]1C(=O)N1CC2(CN(C(=O)c3cnn(Cc4ccccc4)c3)C[C@@H]2C(=O)N[C@H]2CCc3cc(Cl)ccc32)C1` [I-120B] cannot be ordered by IC50: > 10 µM for the first, > 10 µM for the second.

First: CNC(=O)[C@@H](NC(=O)[C@@H]1CN(C(=O)c2cnn(CC3CCOCC3)c2)CC12CN(C(=O)[C@H]1CC1(C)C)C2)[C@@H](C)OCC1CCCCC1 [I-121A]
Second: CNC(=O)[C@@H](NC(=O)[C@H]1CN(C(=O)c2cnn(CC3CCOCC3)c2)CC12CN(C(=O)[C@H]1CC1(C)C)C2)[C@@H](C)OCC1CCCCC1 [I-121B]
The IC50 of the first is lower: 5 to 10 µM for the first, > 10 µM for the second.

`COCCNC(=O)[C@H]1CN(C(=O)c2cnn(Cc3ccccc3)c2)CC12CN(C(=O)[C@H]1CC1(C)C)C2` [I-122B] and `COc1cccc(CNC(=O)[C@@H]2CN(C(=O)c3cnn(Cc4ccccc4)c3)CC23CN(C(=O)[C@H]2CC2(C)C)C3)n1` [I-126A] cannot be ordered by IC50: > 10 µM for the first, > 10 µM for the second.

`C[C@@H]1C[C@H](C)CN(C(=O)[C@@H](NC(=O)C2CN(C(=O)c3cn[nH]c3)CC23CN(C(=O)[C@H]2CC2(C)C)C3)[C@@H](C)OCc2ccccc2)C1` (stereo partly drawn) [I-124] and `CNC(=O)[C@@H](NC(=O)[C@H]1CN(C(=O)c2cnn(Cc3ccccc3)c2)CC12CN(C(=O)[C@H]1CC1(C)C)C2)[C@@H](C)OCC(C)(C)C` [I-130B] cannot be ordered by IC50: > 10 µM for the first, > 10 µM for the second.

`COc1cccc(CNC(=O)[C@H]2CN(C(=O)c3cnn(Cc4ccccc4)c3)CC23CN(C(=O)[C@H]2CC2(C)C)C3)n1` [I-126B] and `C[C@H](NC(=O)[C@@H]1CN(C(=O)c2cnn(Cc3ccccc3)c2)CC12CN(C(=O)[C@H]1CC1(C)C)C2)c1cccc(F)c1` [I-127A] cannot be ordered by IC50: > 10 µM for the first, > 10 µM for the second.

`C[C@H](NC(=O)[C@H]1CN(C(=O)c2cnn(Cc3ccccc3)c2)CC12CN(C(=O)[C@H]1CC1(C)C)C2)c1cccc(F)c1` [I-127B] and `C[C@@H](NC(=O)[C@@H]1CN(C(=O)c2cnn(Cc3ccccc3)c2)CC12CN(C(=O)[C@H]1CC1(C)C)C2)c1cccc(F)c1` [I-128A] cannot be ordered by IC50: > 10 µM for the first, > 10 µM for the second.

`C[C@@H](NC(=O)[C@H]1CN(C(=O)c2cnn(Cc3ccccc3)c2)CC12CN(C(=O)[C@H]1CC1(C)C)C2)c1cccc(F)c1` [I-128B] and `CC1(C)C[C@@H]1C(=O)N1CC2(CN(C(=O)c3cnn(Cc4ccccc4)c3)C[C@H]2C(=O)N[C@H]2CCc3cc(Cl)ccc32)C1` [I-133A] cannot be ordered by IC50: > 10 µM for the first, > 10 µM for the second.

`CNC(=O)[C@@H](NC(=O)[C@H]1CN(C(=O)c2cncs2)CC12CN(C(=O)[C@H]1CC1(C)C)C2)[C@@H](C)OCC1CCCCC1` [I-129B] and `CO[C@H]1COCC[C@@H]1NC(=O)[C@H]1CN(C(=O)c2cnn(Cc3ccccc3)c2)CC12CN(C(=O)[C@H]1CC1(C)C)C2` [I-131B] cannot be ordered by IC50: > 10 µM for the first, > 10 µM for the second.

Reference: patent US12065445B2, “CDK2 inhibitors and methods of using the same” (Cedilla Therapeutics, Inc., priority 2021, dated 2024)
